*1 amine or outer side, *2 acyl side, *3 side chain or, on linkers, in order; H or OH if unused. Where a SMILES comes first, the peptide text is derived from it. Side-chain parts run from the residue outwards. [ ]: non-standard residue; d: D form. The star is where a group is joined. γGlu = O=C(O)[C@H](CCC(=O)[*:2])N[*:1]; Stearoyl = CCCCCCCCCCCCCCCCCC(=O)*; Nle = CCCC[C@H](N)C(=O)O; AEEA = NCCOCCOCC(=O)O; Aib = CC(C)(N)C(=O)O
What was measured:
rat RXFP1 = target: T1, rat RXFP1 (Rattus norvegicus, UniProt Q6R6I6); experiment: cAMP HTRF assay in HEK_ratRXFP1 cells; format: cell-based
T1 construct: expressed in transfected cells
T1 sequence (Q6R6I6 1-758): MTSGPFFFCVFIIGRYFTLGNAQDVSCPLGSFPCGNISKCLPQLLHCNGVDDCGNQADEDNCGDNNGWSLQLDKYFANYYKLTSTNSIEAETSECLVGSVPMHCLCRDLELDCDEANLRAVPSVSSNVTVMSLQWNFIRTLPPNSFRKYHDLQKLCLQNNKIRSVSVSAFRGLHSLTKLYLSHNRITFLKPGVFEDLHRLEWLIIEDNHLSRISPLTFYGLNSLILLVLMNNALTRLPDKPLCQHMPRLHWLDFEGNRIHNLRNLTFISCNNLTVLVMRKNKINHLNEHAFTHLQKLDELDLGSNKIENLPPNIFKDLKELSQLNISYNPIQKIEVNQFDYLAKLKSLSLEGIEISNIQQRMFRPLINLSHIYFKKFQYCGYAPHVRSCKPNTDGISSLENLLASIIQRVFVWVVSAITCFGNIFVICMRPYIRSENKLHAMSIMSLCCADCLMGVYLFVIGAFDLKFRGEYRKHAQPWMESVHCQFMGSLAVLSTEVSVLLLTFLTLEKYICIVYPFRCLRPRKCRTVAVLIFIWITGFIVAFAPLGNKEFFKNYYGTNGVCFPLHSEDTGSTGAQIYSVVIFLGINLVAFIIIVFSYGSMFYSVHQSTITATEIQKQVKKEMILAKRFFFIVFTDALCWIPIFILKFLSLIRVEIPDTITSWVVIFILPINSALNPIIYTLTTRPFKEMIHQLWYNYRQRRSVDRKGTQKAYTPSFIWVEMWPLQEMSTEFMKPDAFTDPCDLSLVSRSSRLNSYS

RXFP1 [1] = target: T2, RXFP1 (Homo sapiens, UniProt Q9HBX9); experiment: cAMP HTRF assay in EA.hy926_hRXFP1 cells; format: cell-based; set-up: expressed in transfected cells; host or cells: EA.hy926 (ATCC CRL-2922), lentiviral transduction, puromycin selection
T2 sequence (Q9HBX9 1-757): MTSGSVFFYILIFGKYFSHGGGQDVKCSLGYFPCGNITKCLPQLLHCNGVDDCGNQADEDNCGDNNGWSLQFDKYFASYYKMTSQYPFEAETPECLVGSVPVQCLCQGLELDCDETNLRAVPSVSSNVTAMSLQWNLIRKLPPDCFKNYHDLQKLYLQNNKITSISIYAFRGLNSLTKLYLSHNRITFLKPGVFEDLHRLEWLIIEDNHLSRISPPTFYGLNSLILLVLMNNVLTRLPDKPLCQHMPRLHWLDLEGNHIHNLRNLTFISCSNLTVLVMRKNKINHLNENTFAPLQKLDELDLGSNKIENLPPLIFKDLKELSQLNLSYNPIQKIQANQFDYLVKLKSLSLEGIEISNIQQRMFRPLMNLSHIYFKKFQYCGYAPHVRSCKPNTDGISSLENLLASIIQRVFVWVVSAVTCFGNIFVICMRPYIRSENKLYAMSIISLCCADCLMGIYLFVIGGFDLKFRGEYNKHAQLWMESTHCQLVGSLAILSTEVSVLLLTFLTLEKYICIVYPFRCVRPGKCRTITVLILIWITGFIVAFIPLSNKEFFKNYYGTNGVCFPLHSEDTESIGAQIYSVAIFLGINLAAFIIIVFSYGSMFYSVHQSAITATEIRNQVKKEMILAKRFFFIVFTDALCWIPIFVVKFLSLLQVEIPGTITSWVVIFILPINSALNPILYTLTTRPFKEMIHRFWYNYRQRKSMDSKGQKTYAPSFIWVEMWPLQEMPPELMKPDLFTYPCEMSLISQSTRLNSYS
Protocol: EA.hy926 or EA.hy926_RXFP1 were grown in complete growth medium (DMEM + 10% Fetal Calf serum + 1% Penicillin/Streptomycin + puromycin 0.5 µg/mL) at 37 °C and 5% CO2 in a humidified incubator. When cells reached 80–90% confluency, cells were detached from plastic using Trypsin–EDTA and were plated in 96 or 384-well plates according to the test.
(§3) Cells were plated in low-volume 384-well plates at a density of 4000 cells/well for EA.hy926_RXFP1 cells or 8000 cells/well for OVCAR5 cells in a final volume of 5 µL. The plates were briefly centrifuged at 800 rpm to allow the cell suspension to move to the bottom of the wells and then incubated for 24 h at 37 °C in 5% CO2. 5µL of the diluted compounds were then transferred in 384-well plate containing 5µL of cells in test medium. The assay plates were incubated for 30 min at 37 °C under 5% CO2. After 30 min the reaction was stopped by addition of HTRF revelation reagents with a multidrop dispenser. […]
(§4) After overnight incubation at room temperature, HTRF signal was read at 620 and 665 nm on Phera Star (BMG LAbtech) plate reader. The HTRF signal was calculated as follows: ratio HTRF = [(signal 665 nm)/(signal 620 nm)] × 10^4. […]
(§5) Relative EC50s (EC50rel) were determined with SAS procedure NLIN in SAS system release 9.4 under Unix via Biost@t-SPEED-LTS v2.4 internal software using the 4-parameter logistic model[47]. […]

RXFP1 [2] = target: T2, RXFP1; experiment: cAMP HTRF assay in OVCAR5 cells (endogenous RXFP1); format: cell-based; set-up: they express significant endogenous levels of RXFP1 (determined by RT-PCR); endogenous in cells; host or cells: OVCAR5 (from NIH, NCI-60 panel)
Protocol: OVCAR5 cells were grown in complete medium (RPMI 1640 + 10% Fetal Calf serum + 1% Penicillin/Streptomycin) at 37 °C and 5% CO2 in a humidified incubator. OVCAR5 cells were detached with accutase for 5 min and were plated in 384-well plates at a density of 8000 cells/well.
as §3, §4, §5

RXFP1 [3] = target: T2, RXFP1; experiment: cAMP production in HEK_RXFP1 cells; format: cell-based; set-up: expressed in transfected cells; conditions: HEK_RXFP1 cells (wild type construct), n = 4 experiments in duplicate
wild type EA.hy926 cells = experiment: xCELLigence real time impedance in wild type EA.hy926 cells; format: cell-based, human
Protocol: (§1) Cell impedance assays in both wild type EA.hy926 and EA.hy926_RXFP1 cell lines were performed using a MP RCTA xCELLigence Analyzer (ACEA Biosciences) on E-Plates. 20,000 cells/well were seeded in E-plates in 200 µL of growth medium and left to settle for 30 min at room temperature. Plates were then placed into the xCELLigence RTCA MP Instrument under 5% CO2 at 37 °C and impedance was continuously measured every 15 min overnight. The next day, a 4-h serum starvation was performed using the same medium but with 0.1% FCS (impedance measurement every 5 min).
(§2) Data analysis was performed using RTCA2.0 software according to ACEA recommendations. Raw impedance expressed as cell index was normalized for each well by dividing individual Cell Index values by baseline Cell index values obtained 5 min before peptide treatment in order to obtain Normalized Cell Index (NCI): mean NCI from 4 replicates for each condition are presented.

RXFP1 [4] = target: T2, RXFP1; experiment: xCELLigence real time impedance in EA.hy926_RXFP1 cells; format: cell-based; set-up: expressed in transfected cells; host or cells: EA.hy926 (ATCC CRL-2922), lentiviral transduction, puromycin selection; conditions: 10 nM, over 10 h
Protocol: as §1, §2

Row | Emax (rat RXFP1; read-out: Emax (%) ± SEM cAMP) [%] | Emax (RXFP1 [1]; read-out: Emax (%) ± SEM cAMP) [%] | Emax (RXFP1 [2]; OVCAR-5, read-out: Emax (%) ± SEM cAMP) [%] | cAMP activity (RXFP1 [3]) | Emax (%) ± SEM cAMP (rat RXFP1; HEK_ratRXFP1 cells, % of 100 nM relaxin response, n = 6) [%] | EC50 (rat RXFP1; HEK_ratRXFP1 cells, geometric mean of relative EC50 with 95% CI, n = 6) [nM] | kinetics and shape of the RXFP1 activation signal (impedance) (RXFP1 [4]) | Emax (%) ± SEM cAMP (RXFP1 [1]; EA.hy926_hRXFP1 cells, % of 100 nM relaxin response, n = 5) [%] | Emax (%) ± SEM cAMP (RXFP1 [2]; OVCAR5 cells, % of 100 nM relaxin response, n = 6) [%] | Compound | impedance response (wild type EA.hy926 cells)
1 | 68.5 ± 2.8 | 93.7 ± 1.1 | 84.1 ± 1.1 | – | – | – | – | – | – | CCCCCCCCCCCCCCCCCC(=O)N[C@@H](CCC(=O)N[C@@H](CCC(=O)N[C@@H](CCC(=O)NCCOCCOCC(=O)NCCOCCOCC(=O)NCCOCCOCC(=O)NCCCC[C@H](NC(=O)[C@H](CCCCNC(C)=O)NC(=O)[C@H](CCCCN)NC(=O)[C@H](CCCNC(=N)N)NC(=O)C(C)(C)NC(=O)[C@H](CO)NC(=O)[C@H](Cc1c[nH]c2ccccc12)NC(=O)[C@@H](NC(=O)[C@H](CO)NC(=O)[C@H](CCCC)NC(=O)CNC(=O)[C@H](CCC(=O)O)NC(=O)C(C)(C)NC(=O)C(C)(C)NC(=O)[C@@H](NC(=O)[C@H](CCCCNC(C)=O)NC(=O)[C@H](C)NC(=O)[C@H](CCCNC(=N)N)NC(=O)[C@@H](NC(=O)[C@H](CCCCN)NC(=O)[C@H](CCC(=O)O)NC(=O)[C@H](CCCNC(=N)N)NC(=O)CNC(=O)[C@H](CCC(=O)O)NC(=O)[C@H](CC(C)C)NC(C)=O)C(C)C)[C@@H](C)CC)[C@@H](C)O)C(N)=O)C(=O)O)C(=O)O)C(=O)O [SA10SC-RLX] (Ac-LEGREKVRAK(Ac)I[Aib][Aib]EG[Nle]STWS[Aib]RKK(Ac)K([AEEA-AEEA-AEEA-γGlu-γGlu-γGlu-Stearoyl])-NH2) | –
2 | – | – | – | activity was in the same range | 95.6 ± 0.8 | 1.4 | superimposable responses | 100.1 ± 0.7 | 96.2 ± 0.8 | relaxin | Neither relaxin nor SA10SC-RLX induced a response
